Tested on: PBMCs from HLA-A2 positive patients with prostate cancer and individuals with benign disease
Assay: IFNγ ELISPOT of PBMCs from prostate cancer patients and individuals with benign disease after peptide re-stimulation
Assay type: cell-based, human
Experimental: FIG. 3. IFNγ response of peripheral blood mononuclear cells (PBMCs) isolated from patients with prostate cancer and individuals with benign disease after re-stimulation with PAP-115-123 epitope using an ELISPOT assay. Cryopreserved PBMCs from ten HLA-A2 positive prostate cancer patients and ten benign candidates were compared. The PBMCs were cultured in vitro with 5 μg of PAP-114-128 epitope for 7 days. The cells were then washed and rested overnight and 4×10^4 cells were added to each well of an ELISPOT plate. PAP-115-123 epitope peptide (1 μg) was added per well and cells cultured for 48 hours. The plates were then washed according to the manufacturer's protocol. PBMCs with no added peptide were used as control. Comparisons of means (±SEM) between groups (cells pulsed with PAP-115-123 or no peptide) are made using an unpaired t test.
FIG. 12. IFNγ responses generated by PBMCs isolated from 10 patients with prostate cancer and 10 individuals with benign disease after re-stimulation with the PAP-115-123 analogue epitope peptide, as determined using an ELISPOT assay. PBMCs were cultured in vitro with 5 μg of PAP-114-128 analogue epitope for 7 days. The cells were then washed and rested overnight, at which time and 4×10^4 cells were added to each well of an ELISPOT plate. PAP-115-123 analogue epitope peptide (1 μg) was added to each well and the cells were cultured for 48 hours. The plates were then washed according to the manufacturer's protocol. PBMCs cultured with no added peptide were used as the control. Comparisons of means (±SEM) between groups (PBMCs pulsed with PAP-115-123 analogue or no peptide) are made using an unpaired t test.
To determine the presence of circulating T cells specific for PAP-115-123 in humans, PBMCs from HLA-A2 positive patients with prostate cancer and individuals with benign disease were used. Cryopreserved PBMCs were thawed, washed and restimulated for 7 days with […] epitope peptide. The cells were then washed and rested overnight, at which time 4×10^4 cells were added to each well of an ELISPOT plate. PAP-115-123 epitope peptide (1 μg) was added to each well and the cells cultured for 48 hours. The plates were developed according to the manufacturer's instructions. PBMCs cultured with no peptide were used as controls. […] The number of IFNγ spots generated by PBMCs from one of the patients was as high as 220 (vs 60 spots for the control). The number of spots generated by PBMCs for the other 6 patients with prostate cancer ranged between 50 and 100 (vs 10-20 in controls). Although some of the PBMCs from individuals with benign disease generated 50-100 spots, the number of spots in the control wells was also high.
To determine the presence of circulating T cells specific for PAP-115-123 analogue peptide in humans, PBMCs from HLA-A2 positive patients with prostate cancer and individuals with benign disease were used. Cryopreserved PBMCs were thawed, washed and restimulated for 7 days with […] analogue epitope. The cells were then washed and rested overnight, at which time 4×10^4 cells were added to each well of an ELISPOT plate. 1 μg of PAP-115-123 analogue epitope was added to each well and cells were cultured for 48 hours. The plates were developed as per the manufacturer's instructions. PBMCs cultured with no peptide were used as control. […] The number of IFNγ spots in one of the patients was as high as 180 spots compared to control (54 spots). Similar response was also obtained when PBMCs were co-cultured with PAP-115-123 epitope (FIG. 3). The number of spots generated by PBMCs from the 6 patients with prostate cancer patients ranged between 50 and 100 (vs 10-20 in control wells). Although some of the samples from individuals with benign disease generated 50-100 spots, the number of spots in the control wells was also high.

For SAMTNLAAL [PAP-115-123], which “number of spots, other 6 patients with prostate cancer” value (1 μg peptide, 4×10^4 cells per well, 10-20 in controls) is on record?
Its value is 50-100 spots.

And the “number of spots, some PBMCs from individuals with benign disease” value (1 μg peptide, spots in control wells also high)?
Its value is 50-100 spots.

What about the “peptide-specific IFNγ response in samples from individuals with benign disease” value (10 benign individuals, 1 μg peptide) of the same sequence?
Its value is “no PAP-115-123 specific IFNγ response and none”.

And the “PBMC samples from patients with prostate cancer with peptide-specific IFNγ response” value (of 10 samples, 7 days re-stimulation with the 15-mer, then 1 μg peptide, 48 hours, vs no peptide)?
Its value is 7.

What about the “number of IFNγ spots, highest patient” value (one prostate cancer patient, 1 μg peptide, 4×10^4 cells per well, 48 hours) of the same sequence?
Its value is 220 spots.

Reference: US10137185B2, “PAP peptide analogues” (THE NOTTINGHAM TRENT UNIVERSITY, priority 2014, dated 2018)
